Earlier results on three compounds are cited in US12263173B2, “PLK1 inhibitor in combination with anti-angiogenics for treating metastatic cancer” (CARDIFF ONCOLOGY, INC., priority 2022, dated 2025).

The test system of data set [1] is patients with advanced/metastatic solid tumors. The note with it: reversible.
A further data set has as its target PLK1 (Homo sapiens, UniProt P53350).
Data set [2] has as its system HT29 human colon adenocarcinoma xenografts. The note with it: in combination with irinotecan.
Data set [3] concerns disseminated model of AML.
Data set [4] concerns patients with AML who were treatment naïve yet unsuitable for induction therapy. The settings on record: administered intravenously in combination with LDAC.
The next data set has as its system patients with AML. The settings on record: in combination with LDAC.
Data set [5] deals with patients with and without prior bevacizumab treatment. The settings on record: second line.
The mark [6] stands for this setting: bev naïve (without prior bevacizumab).

Like-named read-outs stand apart in the source and are kept apart here.

PLK1, sequence (P53350 whole entry): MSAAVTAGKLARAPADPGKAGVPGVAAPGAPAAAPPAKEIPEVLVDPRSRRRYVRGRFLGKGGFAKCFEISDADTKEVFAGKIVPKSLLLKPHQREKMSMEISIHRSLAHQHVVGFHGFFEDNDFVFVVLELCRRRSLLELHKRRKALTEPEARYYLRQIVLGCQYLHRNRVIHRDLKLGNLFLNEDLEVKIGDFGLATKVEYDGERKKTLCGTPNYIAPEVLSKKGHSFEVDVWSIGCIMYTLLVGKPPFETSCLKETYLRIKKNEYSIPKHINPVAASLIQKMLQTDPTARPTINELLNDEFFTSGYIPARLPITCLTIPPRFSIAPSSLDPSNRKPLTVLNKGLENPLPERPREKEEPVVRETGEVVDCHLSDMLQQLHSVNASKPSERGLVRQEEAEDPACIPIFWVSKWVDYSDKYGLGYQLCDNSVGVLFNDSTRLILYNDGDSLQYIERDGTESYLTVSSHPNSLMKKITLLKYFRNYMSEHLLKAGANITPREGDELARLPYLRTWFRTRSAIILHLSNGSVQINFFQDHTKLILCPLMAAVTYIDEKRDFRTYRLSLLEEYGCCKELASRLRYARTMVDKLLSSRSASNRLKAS

On to `CN1CCN(c2ccc(OC(F)(F)F)c(Nc3ncc4c(n3)-c3c(c(C(N)=O)nn3CCO)CC4)c2)CC1` [onvansertib, 1-(2-hydroxyethyl)-8-{[5-(4-methylpiperazin-1-yl)-2-(trifluoromethoxy)phenyl]amino}-4,5-dihydro-1H-pyrazolo[4,3-h]quinazoline-3-carboxamide], for which, in [1], the “recovery of hematologic toxicities” value is recorded as at most 3 weeks. In addition, the “specificity for PLK1” value on PLK1 (among a panel of 296 kinases, including other PLK members) is listed as “high specificity”. For the same compound, the “potency and specificity for the PLK1 isozyme versus volasertib” value on PLK1 (compared with volasertib (BI6727)) is “higher degree of potency and specificity”. The “tumor regression compared to each agent alone” value in [2] is “enhanced tumor regression”. Further, the “inhibition of cell proliferation” value in the data set with AML cell lines is “nanomolar concentrations”. Further, the xenograft tumor growth result in the data set with xenograft models (well tolerated doses in mice after oral administration) is on record as “inhibits xenograft tumor growth”. Further, the tumor growth entry in the data set with xenograft models (xenograft models of AML) is “inhibited”. The survival of animals result in data set [3] (in combination therapy with cytarabine) is “prolonged survival”. The “effect on cytarabine antitumor activity” value in [3] (in combination with cytarabine) is on record as “significantly increased”.

For the compound `CC[C@@H]1C(=O)N(C)c2cnc(Nc3ccc(C(=O)N[C@H]4CC[C@H](N5CCN(CC6CC6)CC5)CC4)cc3OC)nc2N1C(C)C` [volasertib], the “OS compared with LDAC alone” value in data set [4] is listed as “significant increase in OS”. In the data set on patients with AML, the “benefit of the combination” value was “no benefit”.

As for “bev: anti-angiogenics (angiogenesis inhibitor), Avastin”, in data set [5] (setting [6]), the mOS is recorded as 13.9 months and the mPFS is 6.9 months. Besides, in data set [5] (prior bev), the mOS was 12.5 months and the mPFS is listed as 6.7 months.
